# Publication PMC8359396, “Pharmacological validation of TDO as a target for Parkinson’s disease” (The Febs Journal, 2021)
# Columns and labels:
# GL‐261‐mTDO = target: T1, GL‐261‐mTDO (Mus musculus, UniProt P48776); test: Cell-based TDO assay, GL‐261‐mTDO cells (pDMAB); conditions: read-out: inhibition GL‐261‐mTDO
# T1 construct: stably overexpressing the full‐length mouse TDO2 cDNA (GL‐261‐mTDO); expressed in transfected cells; host or cells: GL-261
# [1] = test system: rotenone‐induced mouse model of PD; test: GFAP immunofluorescent staining of colon in rotenone model; type: in vivo, male C57BL/6NCrl mice; conditions: rotenone mice; highest two doses: 25 mg·kg^−1, P < 0.001; 50 mg·kg^−1, P < 0.0001
# Procedure: (§1) Parkinson’s disease is associated with the activation of glial cells in the enteric nervous system. Furthermore, aggregates of α‐synuclein have been observed in the enteric nervous system of PD patients. The expression of glial fibrillary acidic protein (GFAP), a marker of enteric glial cells, and of α‐synuclein was determined by immunofluorescent staining of fixed sections of the colons of the sacrificed mice.
# (§2) Expression of GFAP and α‐synuclein in colonic tissue was determined using confocal microscopy (Leica SP8). The colons of the mice were embedded in paraffin. Sections of 15 µm were cut and incubated with 0.3% (v/v) H2O2 for 30 min, rehydrated and incubated with citrate buffer. Following blocking with serum, the sections were incubated overnight with rabbit anti‐α‐synuclein (Millipore, cat. no. AB5038; Burlington, MA, USA) at a dilution of 1 : 1000, or rabbit anti‐GFAP (Dako, cat. no. Z0334), 1 : 1000. After incubation with Alexa® 488‐labeled donkey anti‐rabbit secondary antibody, the slides were mounted using Vectashield® medium for fluorescence with DAPI (Vector Laboratories, cat. no. H‐1000; Burlingame, CA, USA).
# (§3) Immunofluorescence images were made using a Keyence BZ‐9000 microscope. GFAP and α‐synuclein staining were quantified by calculation of the corrected total fluorescence (CTF) with the formula: integrated density – (area × mean fluorescence of background reading).
# [2] = test system: rotenone‐induced mouse model of PD; test: TH‐positive (dopaminergic) cells in substantia nigra, iDISCO; type: in vivo, male C57BL/6NCrl mice; conditions: rotenone mice; two highest doses (25 and 50 mg·kg^−1); P < 0.01
# [3] = target: hTDO2‐overexpressing HEK‐293 cells (HEK‐hTDO) (Homo sapiens, UniProt P48775); test: Cell-based TDO assay, HEK‐hTDO cells (NFK Green); conditions: HEK293, read-out: inhibition HEK‐hTDO
# hTDO2‐overexpressing HEK‐293 cells (HEK‐hTDO), sequence (P48775 whole entry): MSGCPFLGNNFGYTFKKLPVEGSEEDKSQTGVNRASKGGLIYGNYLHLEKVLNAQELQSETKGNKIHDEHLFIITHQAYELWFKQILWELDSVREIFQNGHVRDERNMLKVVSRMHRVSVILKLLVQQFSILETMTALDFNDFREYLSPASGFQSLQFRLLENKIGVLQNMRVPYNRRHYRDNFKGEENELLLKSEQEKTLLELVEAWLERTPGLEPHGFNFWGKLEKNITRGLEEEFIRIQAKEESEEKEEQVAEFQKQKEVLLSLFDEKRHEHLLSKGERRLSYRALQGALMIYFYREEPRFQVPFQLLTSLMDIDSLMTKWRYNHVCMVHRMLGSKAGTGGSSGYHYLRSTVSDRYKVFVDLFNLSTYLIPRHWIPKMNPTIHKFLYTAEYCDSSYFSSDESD
# [4] = target: T2, human MDR1 P‐glycoprotein‐overexpressing MDCK cells (Homo sapiens, UniProt P08183); test: Bi‐directional transport assay, MDCK‐MDR1 monolayer; type: in vitro ADME; conditions: MDCK‐MDR1, with and without elacridar
# T2 construct: host or cells: MDCK (canine kidney)
# T2 sequence (P08183 whole entry): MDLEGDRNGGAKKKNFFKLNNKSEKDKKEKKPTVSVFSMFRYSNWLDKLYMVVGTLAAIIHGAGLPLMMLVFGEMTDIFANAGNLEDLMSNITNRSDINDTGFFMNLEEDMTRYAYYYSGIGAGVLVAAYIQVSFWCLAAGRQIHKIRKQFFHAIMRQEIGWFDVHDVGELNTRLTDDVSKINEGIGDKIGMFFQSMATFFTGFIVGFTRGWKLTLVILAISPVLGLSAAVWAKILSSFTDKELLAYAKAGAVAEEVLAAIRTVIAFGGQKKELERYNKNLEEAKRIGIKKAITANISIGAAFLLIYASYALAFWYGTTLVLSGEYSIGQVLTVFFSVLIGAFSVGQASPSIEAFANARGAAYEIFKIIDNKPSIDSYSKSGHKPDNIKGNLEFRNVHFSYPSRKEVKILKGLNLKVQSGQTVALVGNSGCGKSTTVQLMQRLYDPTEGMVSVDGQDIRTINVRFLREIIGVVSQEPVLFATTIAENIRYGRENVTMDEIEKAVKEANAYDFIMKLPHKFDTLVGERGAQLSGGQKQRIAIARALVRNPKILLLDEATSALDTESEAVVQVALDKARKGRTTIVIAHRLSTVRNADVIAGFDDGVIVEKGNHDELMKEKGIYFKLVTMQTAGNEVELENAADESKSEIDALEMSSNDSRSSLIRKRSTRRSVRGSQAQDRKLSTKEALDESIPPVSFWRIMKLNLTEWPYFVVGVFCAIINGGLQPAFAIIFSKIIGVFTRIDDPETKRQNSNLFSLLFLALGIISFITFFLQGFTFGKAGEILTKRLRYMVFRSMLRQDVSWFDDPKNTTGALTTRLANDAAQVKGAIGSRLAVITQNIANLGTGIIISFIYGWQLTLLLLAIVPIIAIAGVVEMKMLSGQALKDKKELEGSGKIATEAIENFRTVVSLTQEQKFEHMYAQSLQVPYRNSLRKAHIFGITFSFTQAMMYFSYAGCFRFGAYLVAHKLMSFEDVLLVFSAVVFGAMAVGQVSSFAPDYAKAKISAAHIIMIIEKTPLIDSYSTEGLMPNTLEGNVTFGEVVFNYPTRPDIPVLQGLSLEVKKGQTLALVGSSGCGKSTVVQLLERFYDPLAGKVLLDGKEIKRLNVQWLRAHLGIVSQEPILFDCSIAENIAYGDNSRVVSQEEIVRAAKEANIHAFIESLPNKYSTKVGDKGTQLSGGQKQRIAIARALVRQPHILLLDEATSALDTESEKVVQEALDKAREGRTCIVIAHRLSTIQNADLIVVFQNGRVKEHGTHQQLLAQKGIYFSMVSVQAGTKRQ
# Procedure: (§4) To determine whether NTRC 3531‐0 could potentially enter the brain, a bi‐directional transport assay was performed with Madin‐Darby canine kidney (MDCK) cells overexpressing the human ABCB1 gene‐encoded MDR1 P‐glycoprotein (MDCK‐MDR1) at Cyprotex (Macclesfield, UK). MDCK‐MDR1 cells form a confluent monolayer in Transwell® cell culture plates (Corning) and express active MDR1 P‐glycoprotein at the apical side. The cell model is a surrogate model of the brain capillary endothelial cell layer that constitutes the blood–brain barrier. The transport of NTRC 3531‐0 from the apical (A) to the basolateral (B) side of the monolayer (P app, A to B), and from basolateral (B) to apical (A) (P app, B to A), was determined by measuring compound levels in the two compartments of the Transwell plates by liquid chromatography–tandem mass spectrometry (LC‐MS/MS) (Table 2). Transport assays were performed in the absence and presence of the P‐glycoprotein inhibitor elacridar.
# [5] = target: T3, human MDR1 P-glycoprotein (ABCB1) (Homo sapiens, UniProt P08183); test: as above; type: in vitro ADME; conditions: dog; MDCK‐MDR1; Elacridar −
# T3 construct: host or cells: MDCK (canine kidney)
# T3 sequence (P08183 whole entry): as above
# Procedure: as §4
# TDO activity in vivo = test: Trp and Kyn levels in plasma and brain of the PK studies (LC‐MS/MS); parameters: species or system male C57BL/6NCrl mice; conditions: mice, single p.o. 50 mg·kg^−1
# [6] = test system: rotenone‐induced mouse model of PD; test: Spatial memory test in rotenone model; conditions: rotenone mice; 42 days after surgery; highest dose (50 mg·kg^−1); similar trend
# [7] = test system: any cell line used in this study; test: Cell viability assay (ATPlite 1Step); conditions: in parallel with the cell‐based NFK Green assays
# Procedure: In parallel with the cell‐based NFK Green assays, the cytotoxicity of the compounds was determined in cell viability assays using ATPlite™ 1Step (PerkinElmer, Groningen, The Netherlands).
# [8] = In vivo pharmacokinetics and brain penetration; conditions: for AUC: AUCplasma; for Cmax: plasma; for half-life: t½; for Kp uu: Kpuu (unbound brain‐to‐plasma partition coefficient)
# recombinant hIDO1 = recombinant hIDO1 (Homo sapiens, UniProt P14902); test: IDO1 biochemical assay (NFK Green); conditions: read-out: inhibition hIDO1
# recombinant hIDO1, sequence (P14902 whole entry): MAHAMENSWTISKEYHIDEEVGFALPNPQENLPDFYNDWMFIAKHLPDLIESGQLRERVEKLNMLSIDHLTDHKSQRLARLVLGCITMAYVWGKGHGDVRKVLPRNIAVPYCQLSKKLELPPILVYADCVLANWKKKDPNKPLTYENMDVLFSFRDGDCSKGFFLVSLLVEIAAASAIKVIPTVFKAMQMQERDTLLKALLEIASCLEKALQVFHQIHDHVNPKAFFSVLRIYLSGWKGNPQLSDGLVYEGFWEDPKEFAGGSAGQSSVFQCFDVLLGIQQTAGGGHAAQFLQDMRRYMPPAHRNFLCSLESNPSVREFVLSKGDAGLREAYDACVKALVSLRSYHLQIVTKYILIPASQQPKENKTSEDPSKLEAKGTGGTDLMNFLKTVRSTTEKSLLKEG
# [9] = test system: rotenone‐induced mouse model of PD; test: Rotarod test in rotenone model; type: in vivo, male C57BL/6NCrl mice; conditions: highest dose p.o. once daily: 50 mg·kg^−1, P < 0.05
# Procedure: To investigate the effects of TDO inhibition, both compounds were orally administered once daily from day 7 after induction of the PD model (Fig. 5A). […] In this test, the time spent on an accelerating wheel was used to analyze motor function.
# Food and water was provided ad libitum.
# Motor function was assessed in the rotarod test by placing mice on an accelerating rod with speeds starting at 2 rpm and gradually increasing to 20 rpm. The latency to fall was recorded for a maximum of 300 s. Baseline motor function was tested seven days after surgery, and subsequently, motor function was tested every seven days until day 42.
# [10] = test system: rotenone‐induced mouse model of PD; test: α‐Synuclein immunofluorescent staining of colon in rotenone model; type: in vivo, male C57BL/6NCrl mice; conditions: rotenone mice; all doses: 12.5 mg·kg^−1, P < 0.01; 25 and 50 mg·kg^−1, P < 0.001
# Procedure: as §1, §2, §3
# [11] = test system: rotenone‐induced mouse model of PD; test: Colon length in rotenone model; conditions: rotenone mice; two highest doses (25 and 50 mg·kg^−1); P < 0.05
# [12] = male, C57BL/6NCrl, mouse, in vivo, iv, 10 mg, mice, 10 mg∙kg^−1
# [13] = male, C57BL/6NCrl, mouse, in vivo, po, 50 mg
# [14] = male, C57BL/6NCrl, mouse, in vivo, po, 50 mg, mice, 5‐day p.o., 50 mg∙kg^−1
# [15] = male, C57BL/6NCrl, mouse, in vivo, po, 50 mg, mice, single p.o., 50 mg∙kg^−1
# T1 sequence (P48776 whole entry): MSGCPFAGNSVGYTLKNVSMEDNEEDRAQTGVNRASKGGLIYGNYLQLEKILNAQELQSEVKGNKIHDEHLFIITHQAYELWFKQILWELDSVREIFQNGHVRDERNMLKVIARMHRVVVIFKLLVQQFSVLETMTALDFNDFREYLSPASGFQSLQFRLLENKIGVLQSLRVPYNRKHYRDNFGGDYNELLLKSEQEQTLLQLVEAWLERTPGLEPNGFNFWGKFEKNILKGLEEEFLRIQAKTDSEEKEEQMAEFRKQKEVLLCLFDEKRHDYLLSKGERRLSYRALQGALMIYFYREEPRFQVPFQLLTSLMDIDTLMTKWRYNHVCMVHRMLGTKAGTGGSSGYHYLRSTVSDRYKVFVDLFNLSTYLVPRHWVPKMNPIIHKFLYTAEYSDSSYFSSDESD
compound,measurement,setting,value
"Fc1ccc2c(/C=C/c3nnn[nH]3)c[nH]c2c1 [LM10, reference compound]",inhibition at 0.6 µM,GL‐261‐mTDO,42%
same,GFAP staining in colon,[1],decrease of GFAP staining
same,rotenone‐induced loss of TH‐positive cells in the SN,[2],decreased the rotenone‐induced loss of TH‐positive cells
same,inhibition at 0.6 µM,[3],33%
same,P‐glycoprotein substrate status,[4],not a P‐glycoprotein substrate
same,Papp A→B,[5],5.63 ×10⁻⁶ cm/s
same,Papp B→A,[5],1.58 ×10⁻⁶ cm/s
same,Trp levels in plasma and brain compared to vehicle,TDO activity in vivo,no increase
same,Kyn levels in plasma,"TDO activity in vivo; 0.25 h P < 0.01, 0.5 h P < 0.05",only the initial decrease in Kyn levels was found to be significant
same,rotenone‐induced spatial recognition loss,[6],not statistically significant
same,cytotoxicity,[7],not cytotoxic
same,bioavailability,"[8]; male, C57BL/6NCrl, mouse, in vivo, 50 mg/kg, F (oral bioavailability), mice, single p.o. 50 mg∙kg^−1 compared with i.v. 10 mg∙kg^−1",63%
same,AUC,[8]; [12],985 µM·h
same,Cmax,[8]; [12],427 µM
same,half-life,[8]; [12],1.77 h
same,Kp,[8]; [13],0.006
same,Kp at 5 days,[8]; [13],0.01
same,AUC,[8]; [14],2360 µM·h
same,AUC,[8]; [15],3100 µM·h
same,Cmax,[8]; [14],391 µM
same,Cmax,[8]; [15],688 µM
same,Kp uu,[8]; [14],0.02
same,Kp uu,[8]; [15],0.012
same,half-life,[8]; [14],2.35 h
same,half-life,[8]; [15],3.09 h
same,AUCbrain,"[8]; mice, 5‐day p.o., 50 mg∙kg^−1",23.8 µM·h
same,F (oral bioavailability),"[8]; mice, single p.o. 50 mg∙kg^−1 compared with i.v. 10 mg∙kg^−1",63.1%
same,AUCbrain,"[8]; mice, single p.o., 50 mg∙kg^−1",18.5 µM·h
same,inhibition at 0.6 µM,recombinant hIDO1,< 20%
same,motor function (rotarod) of rotenone‐treated mice,[9],significantly improved motor function
same,expression of α‐synuclein in the enteric plexus,[10],decrease in the expression of α‐synuclein
same,colon length (rotenone‐induced intestinal inflammatory response),[11],reduced the rotenone‐induced intestinal inflammatory response
